The subject of one data set is ADJ/PC6 tumour. The experiment in a line: Antitumour activity towards the ADJ/PC6 tumour in mice. In kind it is in vivo. To be noted: for Highest % inhibition: dose (mg/kg).
Data set [1] is described as follows: Toxicity (LD50) in the ADJ/PC6 mouse study. The note with it: in vivo.
Data set [2] relates to GCT/CIS R 6-fold platinum resistant variant of above. Kind of data set: Activity in vitro towards GCT/CIS R cell line. The note with it: Homo sapiens; 6-fold platinum resistant variant of GCT; at least in duplicate; read-out: IC₅₀ GCT/CIS R. In kind it is cell-based. Here is the method:
(§1) Results expressed as µM (IC₅₀ values). All experiments were conducted at least in duplicate.

In data set [3] the test system is L-1210 murine lymphocytic leukaemia. Kind of data set: Activity in vitro towards L-1210 cell line. In kind it is cell-based. The note with it: Mus musculus, L1210, at least in duplicate, read-out: IC₅₀ L-1210. Here is the method:
as §1

Data set [4] has as its system H69 human small cell lung cancer cell line. The experiment in a line: Activity in vitro towards H69 cell line. In kind it is cell-based. The note with it: NCI-H69, at least in duplicate, read-out: IC₅₀ H69. As for the experimental part:
as §1

Data set [5] deals with GCT human testicular germ cell tumour cell line. Kind of data set: Activity in vitro towards GCT cell line. To be noted: at least in duplicate, read-out: IC₅₀ GCT. In kind it is cell-based. Here is the method: as §1
The test system of a further data set is PC6 Murine plasmacytoma. Kind of data set: Activity in vitro towards PC6 cell line. The note with it: for IC50: PC-6, PC6 Murine plasmacytoma, at least in duplicate, read-out: IC₅₀ PC6. The class given is cell-based. As for the experimental part:
as §1

The conditions of data set [6]: Judson et al. 1989; cited from earlier work.
Data set [7] has as its system cisplatin-resistant cell-lines. The experiment in a line: Activity in vitro towards cisplatin-resistant cell lines. The class given is cell-based, human. To be noted: Table 4 (image). From the text: Of particular interest is that compounds (5) and (13) show high activity against cisplatin-resistant cell-lines.
The test system of data set [8] is human ovarian tumour cell lines. The experiment in a line: Activity in vitro towards ovarian cell lines. To be noted: Table 4 (image). The class given is cell-based.
Data set [9] can be described thus: Stability of the hydroxymethyl function in human plasma (HPLC). The note with it: human plasma at 37°C, 100 µg/ml; read-out: half-life values for the release of product (9) in human plasma. In kind it is in vitro ADME. As for the experimental part: Stability Studies. The influence of the trifluoromethyl substituent on the stability of the hydroxymethyl function under simulated physiological conditions was determined for compound (10) containing contiguous hydroxymethyl and […] functions. General Procedure (for 10). To fresh human plasma (9.9 ml) pre-warmed to 37°C was added a solution of the compound to be studied in dimethylsulphoxide (0.1 ml; 10mg/ml) to give a final concentration of 100 µg/ml. At intervals of 0, 5, 10, 15, 20, 30, 40, 50, 60, 75, 90, 105 and 120 min, aliquots (0.5 ml) were withdrawn and added to ice-cold MeOH (1ml). After centrifugation at 4°C the supernatants were placed in cooled vials on a cold plate (3°C) and aliquots (25 µl) analysed by HPLC using an autosampler. The column used was a C6 (Spherisorb) 15cm x 4.6 mm with a precolumn, and was eluted with MeOH:0.05 M aq. NH₄HCO₃, 55:45, at a flow rate of 1.5 ml min⁻¹. Products were monitored by absorbance at 225 nm. Retention times were: for (10) 11.0 min and for its breakdown product (9) 9.6 min. […] Biological Results. The anti-tumour activities of the compounds of the invention against ADJ/PC6 tumour in mice and against human ovarian tumour cell lines were compared with that of trimelamol (1).

For the compound “2-(Hydroxyethyl)(2,2,2-trifluoroethyl)amino-4-methyl-6-(2,2,2-trifluoroethyl)amino-1,3,5-triazine [Compound 7]”, the Highest % inhibition in the data set with ADJ/PC6 tumour is 56 (5 x 25) %.
A word on the LD50: it is the dose at which mortality reaches 50%. Low readings indicate greater toxicity, high ones lower toxicity. In the case of `CN(CO)c1nc(N(C)CO)nc(N(C)CO)n1` [Compound 1, 2,4,6-tris{(hydroxymethyl)(methyl)amino}-1,3,5-triazine, reference compound], in data set [1], the median lethal dose (LD50) turned out to be 140 mg/kg. Besides, the “Therapeutic Index LD50/ED90” value in the data set with ADJ/PC6 tumour is 3.1. In the data set with ADJ/PC6 tumour (Mus musculus), the ED90 was found to be 45 mg/kg. Also, the Highest % inhibition with ADJ/PC6 tumour is given as 96 (5 x 100) %. For the same compound, the IC50 in data set [2] was 25.9 µM; in [3], 41.7 µM; in data set [4] it was 8.7 µM; in data set [5], 24.3 µM; in the data set with PC6 Murine plasmacytoma, 10.1 µM. The “potency against the ADJ/PC6 tumour cell line in vitro relative to the other compounds” value with PC6 Murine plasmacytoma ((1) versus (5), (6) and (13)) is on record as “greater than 3 fold”. Moreover, in data set [6], the half-life in humans entry was “short”.
In the case of `FC(F)(F)CNc1nc(NCC(F)(F)F)nc(NCC(F)(F)F)n1` [Compound 3, 2,4,6-Tris[(2,2,2-Trifluoroethyl)amino]-1,3,5-triazine], the LD50 in data set [1] was 71 mg/kg. Besides, in the data set on ADJ/PC6 tumour, the Highest % inhibition entry is “none^b (none - less than 40%)”.
`OCN(CC(F)(F)F)c1nc(NCC(F)(F)F)nc(NCC(F)(F)F)n1` [Compound 4, 2-(Hydroxymethyl)(2,2,2-trifluoroethyl)amino-4,6-bis[(2,2,2-trifluoroethyl)amino]-1,3,5-triazine] registered a median lethal dose (LD50) in data set [1] of 117 mg/kg. Moreover, the Highest % inhibition with ADJ/PC6 tumour is listed as 40 (5 x 50) %.
In the case of `OCN(CC(F)(F)F)c1nc(N(CO)CC(F)(F)F)nc(N(CO)CC(F)(F)F)n1` [Compound 5, 2,4,6-Tris[(Hydroxymethyl)(2,2,2-trifluoroethyl)amino]-1,3,5-triazine], the IC50 was found to be 48.6 µM in data set [3] and 38.2 µM in the data set on PC6 Murine plasmacytoma. Moreover, in data set [7], the “activity against cisplatin-resistant cell-lines” value was “high activity”. The “potency in a variety of ovarian cell lines compared with (1)” value in data set [8] is “virtually equipotent with (1)”.
Turning to `OCOCN(CC(F)(F)F)c1nc(N(CO)CC(F)(F)F)nc(N(CO)CC(F)(F)F)n1` [Compound 6, 2-[([hydroxymethoxy]methyl)(2,2,2-trifluoroethyl)amino]-4,6-bis(hydroxymethyl)(2,2,2-trifluoroethyl)-amino-1,3,5-triazine], the LD50 in data set [1] is 280 mg/kg. Besides, the Highest % inhibition in the data set with ADJ/PC6 tumour is given as 65 (5 x 12.5) %. The IC50 amounted to 23.7 µM in data set [2], 25.8 µM in data set [5] and 34.4 µM in the data set on PC6 Murine plasmacytoma.
For orientation: half-life means how long it takes for the measured level to halve. For `CN(C)c1nc(N(C)C)nc(N(CO)CC(F)(F)F)n1` [Compound 10, 2,4-Bis(Dimethylamino)-6-(hydroxymethyl)(2,2,2,trifluoroethyl)-amino-1,3,5-triazine], the half-life in data set [9] stood at 45 min.
In turn, `C#CCN(CO)c1nc(N(CO)CC#C)nc(N(CO)CC#C)n1` [Compound 13, 2,4,6-Tris[(hydroxymethyl)(propargyl)amino]-1,3,5-triazine] gave an LD50 in data set [1] of 280 mg/kg. The Highest % inhibition result in the data set with ADJ/PC6 tumour is “none (none - less than 40%)”. Also, the IC50 in [2] amounted to 41.8 µM; in [3], 50.7 µM; in [5], 48.9 µM; in the data set with PC6 Murine plasmacytoma, 36.8 µM. Further, in [7], the “activity against cisplatin-resistant cell-lines” value is listed as “high activity”. In [8], the “potency in a variety of ovarian cell lines compared with (1)” value is on record as “virtually equipotent with (1)”.
In the case of `CN(C)c1nc(N(C)C)nc(N(C)CO)n1` [N-hydroxymethylpentamethylmelamine, reference compound], the half-life in [9] came to 30 min.
